Experimental data taken from the supplement of paper PMC4862054.

Key:
Details in all cases: incubation time: 72 h
MDA-MB-468 [1] = assay: normalised viability (% of control), CellTiter-Blue; higher = more viable cells (about 100 = DMSO control)
Experimental: (§1)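 DSRT, CellTiter-Blue viability, 72 h incubation. Signal is normalised to DMSO and benzethonium chloride controls. Value is the normalised response at dose 3.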

MFM-223 [2] = assay: as above
Experimental: as §1

BT-549 [3] = assay: as above
Experimental: as §1

DU-4475 = assay: normalised viability (% of control), CellTiter-Blue; higher = more viable cells (about 100 = DMSO control)
Procedure, shortened: (§2)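 The reported figure is normalised viability at a single listed concentration of the series. Breast cancer cell lines (20 µl suspension) went onto 384-well plates holding compound in 5 µl medium for 72 h. CellTiter-Blue (2.5 µl, 2 h, 37 °C) was read by fluorescence at 560/590 nm, and each plate was scaled to vehicle at 100 and a positive kill control at 0.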

CAL-120 = assay: as above
Procedure, shortened: as §2

CAL-51 = assay: as above
Procedure, shortened: as §2

BT-474 = assay: as above
Procedure, shortened: as §2

MDA-MB-231 [4] = assay: as above
Procedure, shortened: as §2

MDA-MB-436 = assay: as above
Procedure, shortened: as §2

HCC1599 = assay: as above
Procedure, shortened: as §2

SK-BR-3 = assay: as above
Procedure, shortened: as §2

MDA-MB-468 [5] = assay: as above; remark: listed apart in the source
Procedure, shortened: as §2

MDA-MB-453 = assay: as above
Procedure, shortened: as §2

Hs578T = assay: as above
Procedure, shortened: as §2

HDQ-P1 = assay: as above
Procedure, shortened: as §2

CAL-148 = assay: as above
Procedure, shortened: as §2

MFM-223 [6] = assay: as above; remark: listed apart in the source
Procedure, shortened: as §2

CAL-85-1 = assay: as above
Procedure, shortened: as §2

HCC1143 = assay: as above
Procedure, shortened: as §2

BT-549 [7] = assay: as above; remark: listed apart in the source
Procedure, shortened: as §2

HCC1937 = assay: as above
Procedure, shortened: as §2

MDA-MB-231 [8] = assay: drug sensitivity score (DSS), CellTiter-Blue viability (DSS (AUC-based score)); higher = stronger viability inhibition; extreme values may be limits of the assay
Procedure, shortened: (§3)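 The drug sensitivity score was derived from the area under a fitted dose-response curve. To obtain the curves, breast cancer cells (20 µl suspension) were plated into 384-well plates with compound at 5 or 9 concentrations and kept for 72 h. Viability was measured by CellTiter-Blue fluorescence at 560/590 nm, with each plate normalised to 0.1 % DMSO and a positive kill control.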

MFM-223 [9] = assay: as above
Procedure, shortened: as §3

Cc1ccc(Nc2nccc(N(C)c3ccc4c(C)n(C)nc4c3)n2)cc1S(N)(=O)=O [Pazopanib]
Details	normalised viability [%]
BT-474, 10 nM	105
BT-474, 1000 nM	109
BT-474, 10000 nM	104
BT-549 [3], 100 nM	96.9
BT-549 [7], 10 nM	86.8
BT-549 [7], 1000 nM	86.6
BT-549 [7], 10000 nM	45.6
CAL-51, 3 nM	108
CAL-51, 30 nM	103
CAL-51, 100 nM	99.9
CAL-85-1, 3 nM	92.2
CAL-85-1, 30 nM	77.8
CAL-85-1, 100 nM	95.3
CAL-120, 10 nM	85.5
CAL-120, 1000 nM	91.2
CAL-120, 10000 nM	97.5
CAL-148, 3 nM	78.5
CAL-148, 30 nM	88.9
CAL-148, 100 nM	82.1
DU-4475, 3 nM	97
DU-4475, 30 nM	100
DU-4475, 100 nM	104
HCC1143, 10 nM	76.5
HCC1143, 1000 nM	101
HCC1143, 10000 nM	60.7
HCC1599, 10 nM	96.5
HCC1599, 1000 nM	115
HCC1599, 10000 nM	104
HCC1937, 10 nM	86.7
HCC1937, 1000 nM	92
HCC1937, 10000 nM	94.3
HDQ-P1, 3 nM	107
HDQ-P1, 30 nM	103
HDQ-P1, 100 nM	99.2
Hs578T, 10 nM	117
Hs578T, 1000 nM	98.1
Hs578T, 10000 nM	90.8
MDA-MB-231 [4], 10 nM	86.3
MDA-MB-231 [4], 1000 nM	88.7
MDA-MB-231 [4], 10000 nM	61.4
MDA-MB-436, 10 nM	97.5
MDA-MB-436, 1000 nM	77.4
MDA-MB-436, 10000 nM	77.4
MDA-MB-453, 3 nM	97.7
MDA-MB-453, 30 nM	108
MDA-MB-453, 100 nM	102
MDA-MB-468 [1], 100 nM	104
MDA-MB-468 [5], 10 nM	106
MDA-MB-468 [5], 1000 nM	108
MDA-MB-468 [5], 10000 nM	99.4
MFM-223 [2], 100 nM	71.7
MFM-223 [6], 10 nM	86.8
MFM-223 [6], 1000 nM	51.8
MFM-223 [6], 10000 nM	58.6
SK-BR-3, 10 nM	98.4
SK-BR-3, 1000 nM	99
SK-BR-3, 10000 nM	88.1

Details	drug sensitivity score
MDA-MB-231 [8]	0
MFM-223 [9]	11.6

O=C(CCBr)N1CCN(C(=O)CCBr)CC1 [Pipobroman]
Details	normalised viability [%]
BT-474, 10 nM	120
BT-474, 1000 nM	102
BT-474, 10000 nM	133
BT-549 [3], 100 nM	86.4
BT-549 [7], 10 nM	87.1
BT-549 [7], 1000 nM	87.1
BT-549 [7], 10000 nM	84.2
CAL-51, 3 nM	114
CAL-51, 30 nM	111
CAL-51, 100 nM	103
CAL-85-1, 3 nM	99.3
CAL-85-1, 30 nM	98.6
CAL-85-1, 100 nM	100
CAL-120, 10 nM	90.1
CAL-120, 1000 nM	103
CAL-120, 10000 nM	84.9
CAL-148, 3 nM	97.9
CAL-148, 30 nM	102
CAL-148, 100 nM	103
DU-4475, 3 nM	111
DU-4475, 30 nM	105
DU-4475, 100 nM	108
HCC1143, 10 nM	82
HCC1143, 1000 nM	86.2
HCC1143, 10000 nM	88.2
HCC1599, 10 nM	97
HCC1599, 1000 nM	92.8
HCC1599, 10000 nM	83.2
HCC1937, 10 nM	89.2
HCC1937, 1000 nM	77.9
HCC1937, 10000 nM	85.3
HDQ-P1, 3 nM	104
HDQ-P1, 30 nM	83.8
HDQ-P1, 100 nM	107
Hs578T, 10 nM	107
Hs578T, 1000 nM	97
Hs578T, 10000 nM	95.8
MDA-MB-231 [4], 10 nM	97.8
MDA-MB-231 [4], 1000 nM	104
MDA-MB-231 [4], 10000 nM	89.4
MDA-MB-436, 10 nM	92.6
MDA-MB-436, 1000 nM	98.7
MDA-MB-436, 10000 nM	81.7
MDA-MB-453, 3 nM	124
MDA-MB-453, 30 nM	95.9
MDA-MB-453, 100 nM	92.7
MDA-MB-468 [1], 100 nM	98
MDA-MB-468 [5], 10 nM	98
MDA-MB-468 [5], 1000 nM	94.2
MDA-MB-468 [5], 10000 nM	87.4
MFM-223 [2], 100 nM	98.8
MFM-223 [6], 10 nM	86.6
MFM-223 [6], 1000 nM	90.4
MFM-223 [6], 10000 nM	35.7
SK-BR-3, 10 nM	101
SK-BR-3, 1000 nM	119
SK-BR-3, 10000 nM	95.6

Details	drug sensitivity score
MDA-MB-231 [8]	0
MFM-223 [9]	3.19

c1cc(CN2CCCNCCNCCCNCC2)ccc1CN1CCCNCCNCCCNCC1 [Plerixafor]
Details	normalised viability [%]
BT-474, 2.5 nM	101
BT-474, 250 nM	117
BT-474, 2500 nM	97.6
BT-549 [3], 25 nM	117
BT-549 [7], 2.5 nM	92.7
BT-549 [7], 250 nM	95.9
BT-549 [7], 2500 nM	120
CAL-51, 0.75 nM	106
CAL-51, 7.5 nM	99
CAL-51, 25 nM	103
CAL-85-1, 0.75 nM	91.9
CAL-85-1, 7.5 nM	91.3
CAL-85-1, 25 nM	89.2
CAL-120, 2.5 nM	93.1
CAL-120, 250 nM	91.4
CAL-120, 2500 nM	96
CAL-148, 0.75 nM	77.3
CAL-148, 7.5 nM	89.2
CAL-148, 25 nM	82.7
DU-4475, 0.75 nM	91.4
DU-4475, 7.5 nM	97.3
DU-4475, 25 nM	97.9
HCC1143, 2.5 nM	81
HCC1143, 250 nM	87.4
HCC1143, 2500 nM	83.2
HCC1599, 2.5 nM	107
HCC1599, 250 nM	98.7
HCC1599, 2500 nM	115
HCC1937, 2.5 nM	91.3
HCC1937, 250 nM	103
HCC1937, 2500 nM	111
HDQ-P1, 0.75 nM	106
HDQ-P1, 7.5 nM	123
HDQ-P1, 25 nM	111
Hs578T, 2.5 nM	117
Hs578T, 250 nM	97.3
Hs578T, 2500 nM	102
MDA-MB-231 [4], 2.5 nM	89.1
MDA-MB-231 [4], 250 nM	98.5
MDA-MB-231 [4], 2500 nM	102
MDA-MB-436, 2.5 nM	116
MDA-MB-436, 250 nM	107
MDA-MB-436, 2500 nM	118
MDA-MB-453, 0.75 nM	116
MDA-MB-453, 7.5 nM	114
MDA-MB-453, 25 nM	106
MDA-MB-468 [1], 25 nM	98.5
MDA-MB-468 [5], 2.5 nM	109
MDA-MB-468 [5], 250 nM	112
MDA-MB-468 [5], 2500 nM	108
MFM-223 [2], 25 nM	92.6
MFM-223 [6], 2.5 nM	109
MFM-223 [6], 250 nM	104
MFM-223 [6], 2500 nM	101
SK-BR-3, 2.5 nM	101
SK-BR-3, 250 nM	99.7
SK-BR-3, 2500 nM	106

Details	drug sensitivity score
MDA-MB-231 [8]	0
MFM-223 [9]	0
